Assay results published in patent publication US12465613B2, “Pharmaceutical composition for use in the prophylactic and/or therapeutic treatment of L-DOPA-induced dyskinesia” (UNIVERSIDADE DE SANTIAGO DE COMPOSTELA, priority 2019, dated 2025).
“Also recorded” adds a separate entry of the source.

Legend:
Assay type in all cases: in vivo, rats of the Sprague-Dawley strain
[1] = test system: RhoA; experiment: RhoA expression in striatum and substantia nigra of dyskinetic animals (Western blot, real-time PCR; Example 1)
[2] = test system: ROCK; experiment: ROCK expression and activity in striatum and substantia nigra of dyskinetic animals (Western blot, real-time PCR; Example 1)
[3] = test system: rats injected with 6-OHDA, dyskinesias induced by L-DOPA; experiment: Abnormal involuntary movements (AIMs) when fasudil is co-administered from before and during chronic L-DOPA treatment (Example 2)
[4] = test system: rats with unilateral lesion with 6-OHDA; experiment: Rotational behavior induced by L-DOPA (Example 3); conditions: different doses of fasudil (10, 30, 40 mg/kg)
[5] = test system: rats with unilateral lesion with 6-OHDA, established dyskinesias induced by L-DOPA; experiment: AIMs in animals with already established dyskinesias (L-DOPA 3 weeks, then L-DOPA and fasudil; Example 4)
[6] = L-DOPA 6 mg/kg and 12 mg/kg, normalized to 6-OHDA animals treated with saline, p<0.05
[7] = daily L-DOPA 6 or 12 mg/kg, 3-4 weeks, increase greater with the higher dose
[8] = fasudil 10 mg/kg/day i.p., L-DOPA 6 mg/kg, 3 weeks, relative to L-DOPA only
[9] = fasudil 30 mg/kg i.p., chronic L-DOPA

**Q.** For `N[C@@H](Cc1ccc(O)c(O)c1)C(=O)O` [L-DOPA], which “RhoA protein expression in the substantia nigra” value [1, 6] is on record?
**A.** significant increase

**Q.** And the “RhoA protein expression in the striatum” value ([1]; L-DOPA 6 and 12 mg/kg)?
**A.** only significant with the high dose

**Q.** What about the “levels of the RhoA protein in dyskinetic animals” value [1, 7] of the same compound?
**A.** significant increase

**Q.** What about the “ROCK activity in the substantia nigra” value ([2]; L-DOPA 6 mg/kg and 12 mg/kg, normalized to 6-OHDA animals treated with saline) of the same compound?
**A.** significant increase

**Q.** What about the “ROCK protein expression in the substantia nigra” value [2, 6] of the same compound?
**A.** significant increase

**Q.** What about the “ROCK protein expression in the striatum” value ([2]; L-DOPA 6 and 12 mg/kg) of the same compound?
**A.** only significant with the high dose

**Q.** What about the “levels of the ROCK protein in dyskinetic animals” value [2, 7] of the same compound?
**A.** significant increase

**Q.** With `O=S(=O)(c1cccc2cnccc12)N1CCCNCC1` [fasudil] as the compound, how does the “abnormal involuntary movements (AIMs), total score and separate components (extremity, axial, orolingual)” value ([3]; FIG. 2, fasudil 10 mg/kg and 30-40 mg, chronic L-DOPA 23 and 32 days, p<0.05) read?
**A.** statistically significant reduction

**Q.** And the “reduction in dyskinesia in conditions of severe dyskinesia” value ([3]; L-DOPA dose increased to 24 mg/kg at the end of the treatment, fasudil dose not stated)?
**A.** approximately 50%

**Q.** And the “axial reduction in dyskinesias” value [3, 8]?
**A.** ~35%

**Q.** What about the “orolingual reduction in dyskinesias” value [3, 8] of the same compound?
**A.** ~30%

**Q.** And the “reduction in dyskinesias in the extremities” value ([3]; fasudil 10 mg/kg/day i.p., from 5 days before and 30 min before each L-DOPA 6 mg/kg, 3 weeks, relative to L-DOPA only)?
**A.** ~25%

**Q.** And the “axial reduction in dyskinesias” value [3, 9]?
**A.** 60%

**Q.** And the “extremity reduction in dyskinesias” value [3, 9]?
**A.** 60%

**Q.** And the “orolingual reduction in dyskinesias” value [3, 9]?
**A.** 70%

**Q.** And the reduction in dyskinesia ([3]; fasudil 40 mg/kg i.p., chronic L-DOPA)?
**A.** 70%

**Q.** And the “rotations induced by L-DOPA (rotational behavior)” value [4]?
**A.** unaffected; also recorded: no differences were observed

**Q.** What about the “effect on established dyskinetic movements” value ([5]; FIG. 4B, fasudil 30 and 40 mg/kg, even with L-DOPA 24 mg/kg, p<0.05) of the same compound?
**A.** significant reduction

**Q.** What about the “reduction in established dyskinesias, severe dyskinesia” value ([5]; L-DOPA increased to 24 mg/kg, maintained up to the end of the treatment) of the same compound?
**A.** approximately 50%

**Q.** What about the “effect on established dyskinetic movements” value ([5]; fasudil 10 mg/kg/day, up to 7 days of treatment, after 3 weeks of L-DOPA) of the same compound?
**A.** did not have any effect; also recorded: no improvement

**Q.** What about the “day of treatment from which the reduction in established dyskinesias was seen” value ([5]; fasudil 40 mg/kg/day) of the same compound?
**A.** third

**Q.** What about the “reduction in established dyskinesias” value ([5]; fasudil 40 mg/kg/day, after 3 weeks of L-DOPA) of the same compound?
**A.** about 45%

**Q.** What about the “dyskinesias reduced to (already dyskinetic animals)” value ([5]; fasudil 40 mg/kg, animals treated with L-DOPA for 3-4 weeks, summary statement) of the same compound?
**A.** ~50%
